Source: the NIST ThermoML archive (doi:10.1021/je900113f)
Numbers after ± are expanded uncertainties.

Conditions: 101.33 kPa, Liquid, Vibrating wire viscometry

CC(C)CCCCCCCOC(=O)c1ccccc1C(=O)OCCCCCCCC(C)C
viscosity (283.03 K): 264.88 ± 8.6 mPa·s | viscosity (288.23 K): 176.35 ± 4.9 mPa·s | viscosity (288.36 K): 173.92 ± 4.9 mPa·s | viscosity (293.23 K): 122.34 ± 2.6 mPa·s | viscosity (293.93 K): 116.51 ± 2.4 mPa·s | viscosity (298.13 K): 87.76 ± 1.6 mPa·s | viscosity (298.58 K): 85.3 ± 1.5 mPa·s | viscosity (303.18 K): 64.51 ± 1.1 mPa·s | viscosity (303.5 K): 63.25 ± 1 mPa·s
